# Measurements: patent US9504755B2, “Multi-arm polymeric alkanoate conjugates” (Nektar Therapeutics, priority 2008, dated 2016)
# Values joined by “and” are separate entries in the source; they are usually repeats but may differ in a detail not shown here. Identical values can stand only once. Marks after values point to notes of the source that are not given here.
# What was measured:
# [1] = system: LS174T tumors; experiment: Anti-tumor activity in LS174T colorectal mouse xenograft model; type: in vivo
# Method: (§1) H460, LS174T and LoVo tumors were established in female athymic nude mice. Groups of 10 mice received a total of three single doses of 4-ARM-PEG20K-BA-DOC or docetaxel administered every 7 days (q7d×3) at several doses up to a maximum tolerated dose (MTD). Control groups received no treatment after tumor implant. Animals were weighed daily for the first five days and twice weekly thereafter. Tumor volumes were measured twice weekly after the first drug injection.
# (§2) Anti-tumor activity was measured as changes in tumor volume, time to reach endpoint, and complete or partial tumor regression.
# (§3) Treatment outcome was evaluated by Tumor Growth Delay (TGD), which is defined as the increase in median time to endpoint in a treatment group compared to the control group. Here it is expressed as % TGD, as a percentage to the median time to endpoint of the control group.
# (§4) A tumor whose volume was reduced to 50% or less for three consecutive measurements compared to its volume on Day 1 was considered to be in partial regression. Complete regression was defined as volume […] 13.5 mm^3 for three consecutive measurements.
# (§5) Acceptable toxicity was defined as a group mean body weight (BW) loss of less than 20% during the study and not more than one treatment-related death among ten treated animals.
# [2] = system: LoVo tumors; experiment: Anti-tumor activity in LoVo colorectal mouse xenograft model; type: in vivo
# Method: as §1, §2, §3, §4, §5
# [3] = Pharmacokinetics after IV infusion in Sprague-Dawley rats; type: in vivo, rat
# Method: The objective of this study was to assess the pharmacokinetics and excretion of docetaxel and 4-ARM-PEG20K-BA-docetaxel after intravenous infusion to rats.
# Pharmacokinetics of 4-ARM-PEG20K-BA-docetaxel and docetaxel were evaluated in male rats (15 rats/dose level) dosed with 5, 10, and 15 mg/kg (30, 60, 90 mg/m^2) 4-ARM-PEG20K-BA-docetaxel or 5 mg/kg (30 mg/m^2) docetaxel. 4-ARM-PEG20K-BA-docetaxel and docetaxel were administered via a femoral vein catheter as 30-min intravenous infusions at 4 mL/kg. Blood samples (n=15 timepoints with n=5 samples/dose level/timepoint) were obtained by jugular venipuncture between pre-dose and 144 hours post-dose.
# [4] = Population pharmacokinetic modeling of terminal disposition rate constant, rats; type: in vivo; conditions: rat
# Excerpt: To further evaluate the sustained plasma docetaxel terminal half-life, a population pharmacokinetic approach was employed.
# While determining the pharmacokinetics of docetaxel after administration of docetaxel or 4-ARM-PEG20K-BA-docetaxel, it was observed that reliable values for the terminal disposition rate constant λz could not be obtained for the majority of animals secondary to fluctuation of plasma docetaxel concentrations between adjacent sampling times and/or the occurrence of incomplete concentration-time profiles due to concentrations being near or at the lower limit of quantification (1 ng/mL). In addition, in Example 14, rats were sampled in groups of 15 using alternating, overlapping sparse sampling schemes across groups to encompass the total duration of sampling. All of these factors contributed to the occurrence of sparse data within a given animal's terminal concentration-time profile.
# To further investigate and compare docetaxel terminal disposition patterns between docetaxel and 4-ARM-PEG20K-BA-docetaxel, population pharmacokinetic methods were applied to data from rats (Example 14) and dogs (Example 15 and in one additional study). This allowed estimation of population λz values and corresponding half-life values for each treatment group in the presence of incomplete data within individual animals. Specifically, data from all animals within a treatment group and all treatment groups were fit with a nonlinear mixed effect pharmacokinetic model using the program Monolix. Plasma docetaxel concentrations following docetaxel or 4-ARM-PEG20K-BA-docetaxel administration, and plasma 4-ARM-PEG20K-BA-docetaxel concentrations following 4-ARM-PEG20K-BA-docetaxel administration were fit with a model specifying zero-order input of the dose over a defined infusion period and biexponential disposition (Monolix PK Model 26). Docetaxel concentration-time data after 4-ARM-PEG20K-BA-docetaxel were fit with a model having first order input, to reflect metabolism of 4-ARM-PEG20K-BA-docetaxel to the active docetaxel metabolite, and biexponential disposition (Monolix PK Model 31). The parameter of interest for this investigation was the population terminal disposition rate constant, λz to supplement the results described above.
# [5] = 16.9 mg/kg (50.7 mg/m^2), q7d×3
# [6] = 22.5 mg/kg (67.5 mg/m^2), q7d×3
# [7] = 30 mg/kg (90 mg/m^2), q7d×3 (MTD of docetaxel)
# [8] = 40 mg/kg (120 mg/m^2), q7d×3 (MTD of 4-ARM-PEG20K-BA-DOC)
# [9] = 30 mg/kg (90 mg/m^2), q7d×3 (MTD for both agents)
# [10] = 40 mg/kg (120 mg/m^2), q7d×3 (exceeded MTD)
# [11] = male rats, average over 5, 10, 15 mg/kg
# [12] = male rats, single IV dose 5 mg/kg
# [13] = male rats, single IV dose 10 mg/kg
# [14] = male rats, single IV dose 15 mg/kg
# [15] = docetaxel 5 mg/kg or conjugate 5, 10, 15 mg/kg
# [16] = 12.7 mg/kg (38.1 mg/m^2), q7d×3
# [17] = 30 mg/kg (90 mg/m^2), q7d×3 (MTD of docetaxel), listed as docetaxel
molecule,measurement,setting,value
4-ARM-PEG20K-Butanoate-Linked Docetaxel Conjugate [4-ARM-PEG20K-BA-DOC],BW Loss (%),[1]; [5],12.4%
same,Day of BW Nadir,[1]; [5],23
same,No. Surviving/No. Treated Mice,[1]; [5],9/10
same,PR (partial regressions),[1]; [5],0
same,TGD (%),[1]; [5],126* %
same,BW Loss (%),[1]; [6],11.1%
same,Day of BW Nadir,[1]; [6],23
same,No. Surviving/No. Treated Mice,[1]; [6],10/10
same,PR (partial regressions),[1]; [6],0
same,TGD (%),[1]; [6],169* %
same,Day of BW Nadir,"[1]; 30 mg/kg (90 mg/m^2), q7d×3",23
same,No. Surviving/No. Treated Mice,"[1]; 30 mg/kg (90 mg/m^2), q7d×3",9/10
same,BW Loss (%),[1]; [7],17.9%
same,TGD (%),[1]; [7],250%
same,Day of BW Nadir,"[1]; 40 mg/kg (120 mg/m^2), q7d×3",23
same,No. Surviving/No. Treated Mice,"[1]; 40 mg/kg (120 mg/m^2), q7d×3",10/10
same,BW Loss (%),[1]; [8],18.8%
same,TGD (%),[1]; [8],266%
same,% TGD fold greater than for docetaxel,[1]; each at MTD,1.6 fold
same,BW Loss (%),[2]; [5],7.0%
same,Day of BW Nadir,[2]; [5],21
same,No. Surviving/No. Treated Mice,[2]; [5],10/10
same,PR (partial regressions),[2]; [5],0
same,TGD (%),[2]; [5],64** %
same,BW Loss (%),[2]; [6],11.0%
same,Day of BW Nadir,[2]; [6],24
same,No. Surviving/No. Treated Mice,[2]; [6],10/10
same,PR (partial regressions),[2]; [6],0
same,TGD (%),[2]; [6],50* %
same,BW Loss (%),"[2]; 30 mg/kg (90 mg/m^2), q7d×3",16.2%
same,Day of BW Nadir,"[2]; 30 mg/kg (90 mg/m^2), q7d×3",24
same,No. Surviving/No. Treated Mice,"[2]; 30 mg/kg (90 mg/m^2), q7d×3",10/10
same,PR (partial regressions),"[2]; 30 mg/kg (90 mg/m^2), q7d×3",0
same,TGD (%),[2]; [9],128%
same,Day of BW Nadir,"[2]; 40 mg/kg (120 mg/m^2), q7d×3",24
same,No. Surviving/No. Treated Mice,"[2]; 40 mg/kg (120 mg/m^2), q7d×3",10/10
same,BW Loss (%),[2]; [10],22.6%
same,TGD (%),[2]; [10],148% and 148 ^1%
same,"CL, analyte conjugate, average (±SD)",[3]; [11],0.33 mL/min/kg
same,"Vss, analyte conjugate, average (±SD)",[3]; [11],0.61 ± 0.17 L/kg
same,"AUCinf, analyte conjugate",[3]; [12],250.374 µg·h/mL
same,"AUClast, analyte conjugate",[3]; [12],226.203 µg·h/mL
same,"AUClast, analyte docetaxel",[3]; [12],1.711 µg·h/mL
same,"CL, analyte conjugate",[3]; [12],0.33 mL/min/kg
same,"Cmax, analyte conjugate",[3]; [12],40079 ng/mL
same,"Cmax, analyte docetaxel",[3]; [12],122 ng/mL
same,"T1/2, analyte conjugate",[3]; [12],73 h
same,"Tmax, analyte conjugate",[3]; [12],0.5 h
same,"Tmax, analyte docetaxel",[3]; [12],0.5 h
same,"Vss, analyte conjugate",[3]; [12],0.8 L/kg
same,"AUCinf, analyte conjugate",[3]; [13],437.912 µg·h/mL
same,"AUClast, analyte conjugate",[3]; [13],419.132 µg·h/mL
same,"AUClast, analyte docetaxel",[3]; [13],3.003 µg·h/mL
same,"CL, analyte conjugate",[3]; [13],0.38 mL/min/kg
same,"Cmax, analyte conjugate",[3]; [13],70795 ng/mL
same,"Cmax, analyte docetaxel",[3]; [13],176 ng/mL
same,"T1/2, analyte conjugate",[3]; [13],59 h
same,"Tmax, analyte conjugate",[3]; [13],0.5 h
same,"Tmax, analyte docetaxel",[3]; [13],2.0 h
same,"Vss, analyte conjugate",[3]; [13],0.55 L/kg
same,"AUCinf, analyte conjugate",[3]; [14],895.159 µg·h/mL
same,"AUClast, analyte conjugate",[3]; [14],847.993 µg·h/mL
same,"AUClast, analyte docetaxel",[3]; [14],3.743 µg·h/mL
same,"CL, analyte conjugate",[3]; [14],0.28 mL/min/kg
same,"Cmax, analyte conjugate",[3]; [14],138296 ng/mL
same,"Cmax, analyte docetaxel",[3]; [14],273 ng/mL
same,"T1/2, analyte conjugate",[3]; [14],63 h
same,"Tmax, analyte conjugate",[3]; [14],0.5 h
same,"Tmax, analyte docetaxel",[3]; [14],1.0 h
same,"Vss, analyte conjugate",[3]; [14],0.47 L/kg
same,plasma docetaxel AUC compared with docetaxel,"[3]; rats, equivalent doses (5 mg/kg)",similar
same,"plasma docetaxel half-life, fold longer than after docetaxel",[4],about 4 fold
same,"Mean (SE) λz, plasma docetaxel",[4]; [15],0.00412 (0.001) hr^−1
same,"t½λz, plasma docetaxel",[4]; [15],168 h
"CC(=O)O[C@@]12CO[C@@H]1C[C@H](O)[C@@]1(C)C(=O)[C@H](O)C3=C(C)[C@@H](OC(=O)[C@H](O)[C@@H](NC(=O)OC(C)(C)C)c4ccccc4)C[C@@](O)([C@@H](OC(=O)c4ccccc4)[C@H]21)C3(C)C [Docetaxel, reference compound]",BW Loss (%),[1]; [16],8.8%
same,Day of BW Nadir,[1]; [16],23
same,No. Surviving/No. Treated Mice,[1]; [16],10/10
same,PR (partial regressions),[1]; [16],0
same,TGD (%),[1]; [16],69* %
same,BW Loss (%),[1]; [5],11.2%
same,Day of BW Nadir,[1]; [5],23
same,No. Surviving/No. Treated Mice,[1]; [5],10/10
same,PR (partial regressions),[1]; [5],0
same,TGD (%),[1]; [5],96* %
same,BW Loss (%),[1]; [6],6.7%
same,Day of BW Nadir,[1]; [6],23
same,No. Surviving/No. Treated Mice,[1]; [6],10/10
same,PR (partial regressions),[1]; [6],0
same,TGD (%),[1]; [6],135* %
same,Day of BW Nadir,"[1]; 30 mg/kg (90 mg/m^2), q7d×3",23
same,No. Surviving/No. Treated Mice,"[1]; 30 mg/kg (90 mg/m^2), q7d×3",10/10
same,BW Loss (%),[1]; [7],16.6%
same,PR (partial regressions),[1]; [7],0
same,TGD (%),[1]; [7],166* %
same,PR (partial regressions),[1]; [17],no partial regressions
same,TGD (%),[1]; [17],166%
same,BW Loss (%),[2]; [16],5.0%
same,Day of BW Nadir,[2]; [16],24
same,No. Surviving/No. Treated Mice,[2]; [16],10/10
same,PR (partial regressions),[2]; [16],0
same,TGD (%),[2]; [16],7%
same,BW Loss (%),[2]; [5],12.8%
same,Day of BW Nadir,[2]; [5],21
same,No. Surviving/No. Treated Mice,[2]; [5],10/10
same,PR (partial regressions),[2]; [5],0
same,TGD (%),[2]; [5],70** %
same,BW Loss (%),[2]; [6],14.6%
same,Day of BW Nadir,[2]; [6],24
same,No. Surviving/No. Treated Mice,[2]; [6],10/10
same,PR (partial regressions),[2]; [6],0
same,TGD (%),[2]; [6],32* %
same,BW Loss (%),"[2]; 30 mg/kg (90 mg/m^2), q7d×3",13.3%
same,Day of BW Nadir,"[2]; 30 mg/kg (90 mg/m^2), q7d×3",21
same,No. Surviving/No. Treated Mice,"[2]; 30 mg/kg (90 mg/m^2), q7d×3",10/10
same,PR (partial regressions),"[2]; 30 mg/kg (90 mg/m^2), q7d×3",0
same,TGD (%),[2]; [9],64** %
same,TGD (%),"[2]; 30 mg/kg (90 mg/m^2), q7d×3 (MTD for both agents), listed as docetaxel",64%
same,AUC(0-t),"[3]; Sprague-Dawley, rat, plasma, male rats, single IV dose 5 mg/kg, read-out: AUClast, analyte docetaxel",1.42 µg·h/mL
same,Cmax,"[3]; Sprague-Dawley, rat, plasma, male rats, single IV dose 5 mg/kg, read-out: Cmax, analyte docetaxel",682 ng/mL
same,Tmax,"[3]; Sprague-Dawley, rat, plasma, male rats, single IV dose 5 mg/kg, read-out: Tmax, analyte docetaxel",0.5 h
same,"t½λz, plasma docetaxel",[4]; in vivo,40 h
